ChEMBL document CHEMBL1201862, “PubChem BioAssay data set” (2004)
The source made the active and inactive calls.

Columns and labels:
[1] = target: G-protein coupled receptor 55 (Homo sapiens, UniProt Q9Y2T6); test: inhibition of LPI-stimulated GPR55 beta-arrestin translocation – imaging, U2OS, beta-arrestin-GFP, LPI agonist, primary screen (AID 2013); format: functional;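 note: antagonist potency measured as reduced agonist-driven arrestin aggregation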
Cannabinoid receptor 1 [2] = target: T1, Cannabinoid receptor 1 (Homo sapiens, UniProt P21554); test: SAR analysis of antagonists of the Cannabinoid Receptor 1 using an Image-Based Assay - Set 2. [Related pubchem assays (depositor defined):AID2013, AID2026]; format: functional
[3] = Luminescence Cell-Based Dose Retest to Confirm Inhibitors of Cancer Stem Cells. [Related pubchem assays (depositor defined):AID2717, AID2721]; format: functional; conditions: Homo sapiens
[4] = target: T2, G-protein coupled receptor 35 (Homo sapiens, UniProt Q9HC97); test: SAR analysis of Agonists of the GPR35 Receptor using an Image-Based Assay - Set 2. [Related pubchem assays (depositor defined):AID2013, AID2026]; format: functional
Cannabinoid receptor 2 [5] = target: T3, Cannabinoid receptor 2 (Homo sapiens, UniProt P34972); test: SAR analysis of antagonists of the Cannabinoid Receptor 2 using an Image-Based Assay. [Related pubchem assays (depositor defined):AID2013, AID2026]; format: functional
Cannabinoid receptor 1 [6] = target: T1, Cannabinoid receptor 1; test: SAR analysis of agonists of the Cannabinoid Receptor 1 using an Image-Based Assay - Set 2. [Related pubchem assays (depositor defined):AID2013, AID2026]; format: functional
[7] = target: T2, G-protein coupled receptor 35; test: SAR analysis of Antagonists of the GPR35 Receptor using an Image-Based Assay - Set 3. [Related pubchem assays (depositor defined):AID2013, AID2026]; format: functional
Cannabinoid receptor 2 [8] = target: T3, Cannabinoid receptor 2; test: SAR analysis of agonists of the Cannabinoid Receptor 2 using an Image-Based Assay. [Related pubchem assays (depositor defined):AID2013, AID2026]; format: functional
[9] = target: Glucose-6-phosphate 1-dehydrogenase (Homo sapiens, UniProt P11413); test: inhibition of Homo sapiens G6PD, dose series – biochemical, fluorescence, selectivity assay for P. falciparum G6PD inhibitor project, dose response (AID 504792); format: functional
[10] = target: C-C chemokine receptor type 6 (Homo sapiens, UniProt P51684); test: antagonism of CCR6 beta-arrestin recruitment – cell-based, luminescent beta-arrestin readout, dose response (AID 504728); format: functional
Hexokinase HKDC1 = target: T4, Hexokinase HKDC1 (Homo sapiens, UniProt Q2TB90); test: activation of HKDC1 glucose phosphorylation – biochemical, W721R variant, dose response (AID 504730); format: functional
T4 sequence (Q2TB90 whole entry): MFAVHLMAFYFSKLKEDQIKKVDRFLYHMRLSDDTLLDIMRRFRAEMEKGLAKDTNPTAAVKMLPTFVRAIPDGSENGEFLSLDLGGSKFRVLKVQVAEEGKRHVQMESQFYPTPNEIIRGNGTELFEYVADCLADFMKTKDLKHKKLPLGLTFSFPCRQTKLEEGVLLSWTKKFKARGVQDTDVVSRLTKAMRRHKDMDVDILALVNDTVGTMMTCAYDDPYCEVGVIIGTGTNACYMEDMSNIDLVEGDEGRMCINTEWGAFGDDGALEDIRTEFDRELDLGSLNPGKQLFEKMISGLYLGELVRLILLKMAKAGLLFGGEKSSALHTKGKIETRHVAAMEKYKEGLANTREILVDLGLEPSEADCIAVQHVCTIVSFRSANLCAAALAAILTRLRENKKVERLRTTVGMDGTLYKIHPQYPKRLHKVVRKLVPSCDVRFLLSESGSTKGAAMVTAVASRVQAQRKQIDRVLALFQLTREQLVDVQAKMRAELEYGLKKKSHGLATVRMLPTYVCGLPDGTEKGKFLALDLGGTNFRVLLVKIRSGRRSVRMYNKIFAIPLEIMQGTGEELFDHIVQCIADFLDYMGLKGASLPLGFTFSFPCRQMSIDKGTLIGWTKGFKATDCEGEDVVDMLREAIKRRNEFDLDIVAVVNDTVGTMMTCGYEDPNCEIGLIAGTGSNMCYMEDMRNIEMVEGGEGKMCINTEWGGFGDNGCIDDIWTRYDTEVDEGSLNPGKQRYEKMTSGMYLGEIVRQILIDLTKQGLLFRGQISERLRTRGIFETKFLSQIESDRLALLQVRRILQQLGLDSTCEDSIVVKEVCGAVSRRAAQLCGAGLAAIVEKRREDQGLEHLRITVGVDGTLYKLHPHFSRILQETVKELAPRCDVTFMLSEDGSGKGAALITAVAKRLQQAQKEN

Beta-galactosidase = Beta-galactosidase (Escherichia coli, UniProt Q8VNN2); test: detection-enzyme interference by beta-gal modulators – biochemical, E. coli enzyme, set 3, artefact control for CCR6 antagonist project, dose response (AID 504712); format: functional
Hexokinase-1 = Hexokinase-1 (Homo sapiens, UniProt P19367); test: HK1 enzyme activation by HKDC1 hits – biochemical, selectivity assay for HKDC1 activator project, dose response (AID 504762); format: functional
[11] = target: Heat shock protein HSP 90-alpha (Homo sapiens, UniProt P07900); format: functional, organism-based
[12] = Fluorescence-based cell-based high throughput dose response assay for inhibitors of the interaction of nucleotide-binding oligomerization domain containing 2 (NOD2) and the receptor-interacting serine-threonine kinase 2 (RIPK2).; format: functional; conditions: Homo sapiens
Beta Lactamase = Beta Lactamase (Pseudomonas aeruginosa, UniProt Q932Y6); test: BLA reporter interference, concentration series – BLA reporter cells, FRET fluorescence, artefact control for NOD2-RIPK2 interaction inhibitor project, dose response (AID 651552); format: functional, cell-based
[13] = target: Peroxisome proliferator-activated receptor gamma (Homo sapiens, UniProt P37231); test: PPARg transcriptional activation, reporter cells – cell-based, luminescence, assay provider, dose response (AID 504447); format: functional
[14] = target: Peroxisome proliferator-activated receptor alpha (Homo sapiens, UniProt Q07869); test: Late stage assay provider counterscreen for partial agonists of the peroxisome proliferator-activated receptor gamma (PPARg): Luminescence-based cell-based dose response assay for partial agonists of the peroxisome proliferator-activated receptor alpha (PPARA). [Related pubchem assays (depositor defined):AID1051, AID1300, AID1319, AID1679, AID1808, AID504446, AID504447, AID504452, AID504453, AID631]; format: functional

T1 sequence (P21554 whole entry): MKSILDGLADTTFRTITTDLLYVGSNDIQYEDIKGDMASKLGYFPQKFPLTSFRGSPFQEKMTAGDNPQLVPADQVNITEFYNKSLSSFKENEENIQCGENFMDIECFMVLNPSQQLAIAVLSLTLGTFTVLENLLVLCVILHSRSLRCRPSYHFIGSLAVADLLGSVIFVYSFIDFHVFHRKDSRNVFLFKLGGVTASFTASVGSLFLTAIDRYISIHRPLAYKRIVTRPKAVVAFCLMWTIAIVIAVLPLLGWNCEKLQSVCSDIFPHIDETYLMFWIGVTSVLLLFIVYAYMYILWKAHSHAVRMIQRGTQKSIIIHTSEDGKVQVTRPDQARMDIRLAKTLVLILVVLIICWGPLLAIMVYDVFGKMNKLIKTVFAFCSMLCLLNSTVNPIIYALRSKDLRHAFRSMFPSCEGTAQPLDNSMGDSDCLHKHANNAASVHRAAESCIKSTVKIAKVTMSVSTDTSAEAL
T3 sequence (P34972 whole entry): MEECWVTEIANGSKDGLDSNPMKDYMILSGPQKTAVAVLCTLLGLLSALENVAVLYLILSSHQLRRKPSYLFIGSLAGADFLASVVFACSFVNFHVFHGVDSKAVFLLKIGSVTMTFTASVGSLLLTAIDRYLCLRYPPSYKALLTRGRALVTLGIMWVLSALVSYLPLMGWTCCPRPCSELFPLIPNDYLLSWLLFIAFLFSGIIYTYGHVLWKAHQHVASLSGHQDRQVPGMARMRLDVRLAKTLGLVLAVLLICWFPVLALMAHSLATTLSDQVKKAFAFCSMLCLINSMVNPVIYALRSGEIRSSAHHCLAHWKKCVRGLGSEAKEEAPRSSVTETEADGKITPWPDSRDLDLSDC
T2 sequence (Q9HC97 whole entry): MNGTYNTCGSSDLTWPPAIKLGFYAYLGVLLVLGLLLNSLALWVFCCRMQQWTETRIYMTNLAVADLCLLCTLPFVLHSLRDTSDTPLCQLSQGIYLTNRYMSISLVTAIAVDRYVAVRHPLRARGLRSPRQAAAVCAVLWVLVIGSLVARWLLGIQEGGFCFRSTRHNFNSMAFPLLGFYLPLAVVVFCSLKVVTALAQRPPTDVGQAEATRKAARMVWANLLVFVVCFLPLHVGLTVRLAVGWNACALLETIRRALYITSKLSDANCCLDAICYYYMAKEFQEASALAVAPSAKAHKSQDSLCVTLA
Chain of G-protein coupled receptor 55 (Q9Y2T6 whole entry): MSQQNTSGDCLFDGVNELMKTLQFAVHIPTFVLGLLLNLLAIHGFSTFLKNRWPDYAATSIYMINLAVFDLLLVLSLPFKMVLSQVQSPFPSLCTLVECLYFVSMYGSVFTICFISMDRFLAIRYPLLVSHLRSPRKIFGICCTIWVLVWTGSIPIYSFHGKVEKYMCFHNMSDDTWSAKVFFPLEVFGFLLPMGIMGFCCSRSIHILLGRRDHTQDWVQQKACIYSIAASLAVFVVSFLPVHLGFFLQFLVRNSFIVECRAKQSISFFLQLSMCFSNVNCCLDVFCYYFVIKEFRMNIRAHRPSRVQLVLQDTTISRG
Chain of Beta Lactamase (Q932Y6 whole entry): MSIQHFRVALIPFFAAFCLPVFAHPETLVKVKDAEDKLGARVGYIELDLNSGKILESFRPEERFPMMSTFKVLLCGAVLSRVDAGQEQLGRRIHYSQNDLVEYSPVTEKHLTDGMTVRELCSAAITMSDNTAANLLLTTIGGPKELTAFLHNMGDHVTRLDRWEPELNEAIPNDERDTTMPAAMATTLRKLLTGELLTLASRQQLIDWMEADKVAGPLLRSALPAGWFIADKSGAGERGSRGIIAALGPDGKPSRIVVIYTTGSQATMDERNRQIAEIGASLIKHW
Chain of Hexokinase-1 (P19367 whole entry): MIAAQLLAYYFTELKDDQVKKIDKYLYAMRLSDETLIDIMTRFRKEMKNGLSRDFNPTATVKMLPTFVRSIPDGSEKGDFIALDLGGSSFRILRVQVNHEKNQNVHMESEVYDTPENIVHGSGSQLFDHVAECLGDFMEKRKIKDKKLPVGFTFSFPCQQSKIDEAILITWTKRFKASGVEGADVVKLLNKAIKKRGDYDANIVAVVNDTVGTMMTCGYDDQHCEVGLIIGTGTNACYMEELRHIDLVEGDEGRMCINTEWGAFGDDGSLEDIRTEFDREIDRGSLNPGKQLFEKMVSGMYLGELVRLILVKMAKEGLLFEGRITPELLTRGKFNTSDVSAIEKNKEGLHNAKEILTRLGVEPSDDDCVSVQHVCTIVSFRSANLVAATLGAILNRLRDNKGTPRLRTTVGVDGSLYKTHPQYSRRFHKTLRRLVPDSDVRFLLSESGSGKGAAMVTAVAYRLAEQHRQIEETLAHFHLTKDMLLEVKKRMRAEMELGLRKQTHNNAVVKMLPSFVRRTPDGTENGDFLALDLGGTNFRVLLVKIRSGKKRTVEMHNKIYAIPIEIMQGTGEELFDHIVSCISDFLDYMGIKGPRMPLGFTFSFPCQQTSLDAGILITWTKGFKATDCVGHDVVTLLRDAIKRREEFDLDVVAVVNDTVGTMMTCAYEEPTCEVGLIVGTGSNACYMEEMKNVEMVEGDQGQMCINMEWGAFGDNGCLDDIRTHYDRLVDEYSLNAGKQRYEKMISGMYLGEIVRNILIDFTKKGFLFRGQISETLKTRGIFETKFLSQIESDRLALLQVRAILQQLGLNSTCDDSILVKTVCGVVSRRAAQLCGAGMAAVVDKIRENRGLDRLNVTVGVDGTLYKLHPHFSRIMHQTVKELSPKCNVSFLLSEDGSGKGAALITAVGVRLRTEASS
Chain of Glucose-6-phosphate 1-dehydrogenase (P11413 whole entry): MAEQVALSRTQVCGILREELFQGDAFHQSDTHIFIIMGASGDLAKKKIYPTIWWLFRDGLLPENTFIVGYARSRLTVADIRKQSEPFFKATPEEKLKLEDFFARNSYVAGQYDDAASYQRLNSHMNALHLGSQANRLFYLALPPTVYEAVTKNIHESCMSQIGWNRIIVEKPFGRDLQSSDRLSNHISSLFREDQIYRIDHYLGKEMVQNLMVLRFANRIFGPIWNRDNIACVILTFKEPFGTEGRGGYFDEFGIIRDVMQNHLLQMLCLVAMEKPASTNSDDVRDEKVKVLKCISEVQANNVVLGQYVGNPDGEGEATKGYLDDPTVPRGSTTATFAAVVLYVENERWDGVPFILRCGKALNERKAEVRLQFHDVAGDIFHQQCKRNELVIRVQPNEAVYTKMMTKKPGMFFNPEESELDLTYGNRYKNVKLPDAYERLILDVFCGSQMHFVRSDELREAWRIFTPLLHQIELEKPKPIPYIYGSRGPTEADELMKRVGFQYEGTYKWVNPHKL
Chain of Beta-galactosidase (Q8VNN2 whole entry): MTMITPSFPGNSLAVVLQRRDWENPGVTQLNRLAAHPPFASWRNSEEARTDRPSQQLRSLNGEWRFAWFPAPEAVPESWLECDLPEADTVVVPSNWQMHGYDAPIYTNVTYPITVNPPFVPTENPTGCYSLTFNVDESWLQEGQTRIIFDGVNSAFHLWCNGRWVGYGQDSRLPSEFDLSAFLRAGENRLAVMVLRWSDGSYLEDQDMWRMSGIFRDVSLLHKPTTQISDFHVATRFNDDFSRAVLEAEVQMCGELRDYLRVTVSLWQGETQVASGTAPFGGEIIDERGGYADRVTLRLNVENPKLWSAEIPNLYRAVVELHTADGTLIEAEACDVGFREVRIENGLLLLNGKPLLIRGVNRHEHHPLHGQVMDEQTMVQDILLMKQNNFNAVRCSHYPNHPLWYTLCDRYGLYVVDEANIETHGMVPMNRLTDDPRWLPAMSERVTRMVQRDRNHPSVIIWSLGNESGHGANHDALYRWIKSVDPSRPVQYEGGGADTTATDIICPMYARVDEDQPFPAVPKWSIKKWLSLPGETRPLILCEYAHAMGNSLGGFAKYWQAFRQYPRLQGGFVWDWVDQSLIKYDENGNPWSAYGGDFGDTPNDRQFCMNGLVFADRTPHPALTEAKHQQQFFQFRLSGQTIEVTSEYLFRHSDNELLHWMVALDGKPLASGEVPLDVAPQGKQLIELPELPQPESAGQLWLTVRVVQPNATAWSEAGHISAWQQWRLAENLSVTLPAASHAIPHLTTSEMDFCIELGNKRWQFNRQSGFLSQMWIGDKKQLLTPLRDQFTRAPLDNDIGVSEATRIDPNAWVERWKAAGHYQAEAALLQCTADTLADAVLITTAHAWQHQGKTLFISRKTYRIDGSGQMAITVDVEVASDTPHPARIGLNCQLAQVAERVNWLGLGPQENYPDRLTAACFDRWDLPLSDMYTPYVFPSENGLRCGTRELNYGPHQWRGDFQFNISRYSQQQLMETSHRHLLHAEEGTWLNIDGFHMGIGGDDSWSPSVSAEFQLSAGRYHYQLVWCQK
Chain of Peroxisome proliferator-activated receptor gamma (P37231 whole entry): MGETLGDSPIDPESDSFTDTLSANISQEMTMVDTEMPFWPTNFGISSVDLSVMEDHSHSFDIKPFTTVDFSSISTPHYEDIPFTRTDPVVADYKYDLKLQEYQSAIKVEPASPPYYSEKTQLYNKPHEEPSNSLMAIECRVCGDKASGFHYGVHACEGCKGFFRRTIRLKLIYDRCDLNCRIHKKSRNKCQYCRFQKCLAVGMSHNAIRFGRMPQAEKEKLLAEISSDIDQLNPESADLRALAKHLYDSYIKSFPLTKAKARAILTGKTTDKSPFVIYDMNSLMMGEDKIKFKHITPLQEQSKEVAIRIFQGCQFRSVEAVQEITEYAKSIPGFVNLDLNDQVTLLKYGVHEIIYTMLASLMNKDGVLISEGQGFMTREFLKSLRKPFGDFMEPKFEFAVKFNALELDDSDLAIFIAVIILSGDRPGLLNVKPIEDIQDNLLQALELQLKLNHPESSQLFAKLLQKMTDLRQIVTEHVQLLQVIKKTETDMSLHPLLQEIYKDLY

Cc1cc(OCC(=O)Nc2ccc(S(=O)(=O)NC3=NCCCCC3)cc2)c(C(C)C)cc1Cl
IC50 [1]: 1.08 µM (active) | IC50 (Cannabinoid receptor 1 [2]): 3.16 µM (active) | AC50 [3]: 6.13 µM (active) | EC50 [4]: > 32 µM (inactive) | IC50 (Cannabinoid receptor 2 [5]): > 32 µM (inactive) | EC50 (Cannabinoid receptor 1 [6]): > 32 µM (inactive) | IC50 [7]: > 32 µM (inactive) | EC50 (Cannabinoid receptor 2 [8]): > 32 µM (inactive)

COC(=O)C1=C(C(=O)OC)SC2(S1)C(C(=O)OC)=C(C(=O)OC)Sc1c2ssc1=O
IC50 [9]: > 80 µM (inactive) | IC50 [10]: 28.5 µM (inactive) | EC50 (Hexokinase HKDC1): 33.1 µM (inactive) | IC50 (Beta-galactosidase): > 66.6 µM (inactive) | EC50 (Hexokinase-1): 49.6 µM (inactive) | AC50 [11]: 4.21 µM (active) | IC50 [12]: 0.727 µM (active) | IC50 (Beta Lactamase): 14.1 µM (inactive)

CCOc1cccc(/C=C2/SC(=S)N(CCC(=O)O)C2=O)c1
EC50 [13]: 2.6 µM (active) | EC50 [14]: > 3 µM (inactive)
